Assays:
[1] = molecular target: T1, human glucocorticoid receptor-α [GRX] isoform (Homo sapiens, UniProt P04150); test: Radioligand binding with human glucocorticoid receptor cytosol ([3H]-dexamethasone competition); settings: GRX cytosol expressed in insect SF21 cells, [3H]-Dex ~0.9 nM, 4° C. overnight; Ki by Cheng-Prusoff, KL ~[…]; read-out: Ki (nM) GR
T1 construct: host or cells: insect SF21 cells (baculovirus)
T1 sequence (P04150 1-777): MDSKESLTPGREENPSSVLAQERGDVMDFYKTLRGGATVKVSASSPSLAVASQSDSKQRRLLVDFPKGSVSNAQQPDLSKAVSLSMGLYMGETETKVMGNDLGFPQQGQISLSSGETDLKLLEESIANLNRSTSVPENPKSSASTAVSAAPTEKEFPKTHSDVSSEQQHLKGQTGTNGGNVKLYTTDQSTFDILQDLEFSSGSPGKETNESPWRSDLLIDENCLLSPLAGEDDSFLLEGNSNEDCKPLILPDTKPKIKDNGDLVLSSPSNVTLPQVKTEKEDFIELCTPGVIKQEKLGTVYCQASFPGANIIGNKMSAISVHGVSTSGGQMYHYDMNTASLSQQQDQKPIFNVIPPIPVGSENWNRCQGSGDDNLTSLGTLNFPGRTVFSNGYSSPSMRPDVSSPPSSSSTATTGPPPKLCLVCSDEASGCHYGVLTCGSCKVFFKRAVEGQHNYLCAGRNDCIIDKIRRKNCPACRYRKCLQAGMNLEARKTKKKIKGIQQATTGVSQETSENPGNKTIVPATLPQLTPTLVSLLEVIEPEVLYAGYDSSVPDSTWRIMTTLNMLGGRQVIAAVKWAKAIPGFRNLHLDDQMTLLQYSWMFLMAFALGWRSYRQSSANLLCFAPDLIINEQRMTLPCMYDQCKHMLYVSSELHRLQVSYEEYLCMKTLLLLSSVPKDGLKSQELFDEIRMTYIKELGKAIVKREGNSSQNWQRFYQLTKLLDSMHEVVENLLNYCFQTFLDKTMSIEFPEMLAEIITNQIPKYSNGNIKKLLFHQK

[2] = molecular target: T2, human progesterone receptor-A [PRA] isoform (Homo sapiens, UniProt P06401); test: Radioligand binding with human progesterone receptor cytosol ([3H]-progesterone competition); settings: PRA cytosol expressed in insect SF21 cells, [3H]Prog ~0.8 nM, 4° C. overnight; Ki by Cheng-Prusoff, KL ~4.5 nM; read-out: Ki (nM) PR
T2 construct: host or cells: insect SF21 cells (baculovirus)
T2 sequence (P06401 1-769 isoform P06401-2): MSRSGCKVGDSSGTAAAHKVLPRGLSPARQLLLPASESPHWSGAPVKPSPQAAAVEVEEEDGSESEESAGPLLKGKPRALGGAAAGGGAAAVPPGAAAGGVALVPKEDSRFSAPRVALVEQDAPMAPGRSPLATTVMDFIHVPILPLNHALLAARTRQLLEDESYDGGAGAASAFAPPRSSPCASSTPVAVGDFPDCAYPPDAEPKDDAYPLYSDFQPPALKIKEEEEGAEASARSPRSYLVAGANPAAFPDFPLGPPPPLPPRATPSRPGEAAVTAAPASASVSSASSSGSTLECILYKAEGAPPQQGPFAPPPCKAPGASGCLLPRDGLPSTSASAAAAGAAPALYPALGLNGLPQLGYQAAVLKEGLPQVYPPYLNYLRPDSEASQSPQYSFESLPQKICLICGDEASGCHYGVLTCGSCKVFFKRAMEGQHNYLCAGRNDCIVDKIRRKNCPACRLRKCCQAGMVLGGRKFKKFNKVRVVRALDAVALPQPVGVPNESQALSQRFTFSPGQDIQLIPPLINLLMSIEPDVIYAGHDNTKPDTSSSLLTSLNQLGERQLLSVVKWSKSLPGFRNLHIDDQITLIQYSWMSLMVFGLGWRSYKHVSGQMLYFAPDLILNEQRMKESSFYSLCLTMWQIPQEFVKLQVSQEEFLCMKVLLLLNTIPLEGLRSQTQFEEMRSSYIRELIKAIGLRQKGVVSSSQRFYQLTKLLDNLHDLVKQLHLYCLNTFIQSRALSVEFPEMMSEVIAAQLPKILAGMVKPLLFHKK

Row | Ki [1] | Ki [2] | SMILES
1 | 0.94 nM | 155 nM | C=CCC1Oc2ccc(O)c(OC)c2-c2ccc3c(c21)C(C)=CC(C)(C)N3 (stereo not drawn) [Example 235, 10-Methoxy-9-hydroxy-5-(3-propenyl)-2,2,4-trimethyl-1H-2,5-dihydro-[1]benzopyrano[3,4-f]quinoline]
2 | 52.2 nM | 2170 nM | COc1c(O)ccc2c1-c1ccc3c(c1[C@@H]([C@@H]1C=C(C)CCC1)O2)C(C)=CC(C)(C)N3 [Example 240, (+)(5R,3′S)-9-Hydroxy-5-[1-methyl-3-cyclohexenyl]-10-methoxy-2,2,4-trimethyl-2,5-dihydro-1H-[1]benzopyrano[3,4-f]quinoline]
3 | 0.87 nM | 113 nM | COc1c(O)ccc2c1-c1ccc3c(c1[C@H]([C@@H]1C=CCCCC1)O2)C(C)=CC(C)(C)N3 [Example 246, (−)(5S,3′S)2,5-Dihydro-9-hydroxy-10-methoxy-2,2,4-trimethyl-5-(3-cycloheptenyl)-1H-[1]benzopyrano[3,4-f]quinoline]
4 | 0.86 nM | 195 nM | COc1c(O)ccc2c1-c1ccc3c(c1[C@H]([C@H]1C=CCCCC1)O2)C(C)=CC(C)(C)N3 [Example 247, (−)(5S,3′R)2,5-Dihydro-9-hydroxy-10-methoxy-2,2,4-trimethyl-5-(3-cycloheptenyl)-1H-[1]benzopyrano[3,4-f]quinoline]
5 | 1 nM | 870 nM | COc1c(O)ccc2c1-c1ccc3c(c1C(c1ccccc1)O2)C(C)=CC(C)(C)N3 (stereo not drawn) [Example 248, 2,5-Dihydro-9-hydroxy-10-methoxy-2,2,4-trimethyl-5-phenyl-1H-[1]benzopyrano[3,4-f]quinoline]
6 | 0.8 nM | 488 nM | COc1c(O)ccc2c1-c1ccc3c(c1C(c1cc(F)cc(F)c1)O2)C(C)=CC(C)(C)N3 (stereo not drawn) [Example 249, 2,5-Dihydro-9-hydroxy-10-methoxy-2,2,4-trimethyl-5-(3,5-difluorophenyl)-1H-[1]benzopyrano[3,4-f]quinoline]
7 | 2.4 nM | 1470 nM | COc1c(O)ccc2c1-c1ccc3c(c1C(c1cc(F)c(F)c(F)c1)O2)C(C)=CC(C)(C)N3 (stereo not drawn) [Example 250, 2,5-Dihydro-9-hydroxy-10-methoxy-2,2,4-trimethyl-5-(3,4,5-trifluorophenyl)-1H-[1]benzopyrano[3,4-f]quinoline]
8 | 0.39 nM | 102 nM | COc1c(O)ccc2c1-c1ccc3c(c1[C@H]([C@@H]1C=CCC1)O2)C(C)=CC(C)(C)N3 [Example 252]
9 | 0.38 nM | 42 nM | COc1c(O)ccc2c1-c1ccc3c(c1[C@H]([C@H]1C=CCC1)O2)C(C)=CC(C)(C)N3 [Example 253, (−)(5S,3′R)2,5-Dihydro-9-hydroxy-10-methoxy-2,2,4-trimethyl-5-(3-cyclopentenyl)-1H-[1]benzopyrano[3,4-f]quinoline]
10 | 1.5 nM | 1430 nM | COc1c(O)ccc2c1-c1ccc3c(c1C(c1ccc(F)cc1)O2)C(C)=CC(C)(C)N3 (stereo not drawn) [Example 255, 2,5-Dihydro-9-hydroxy-10-methoxy-2,2,4-trimethyl-5-(4-fluorophenyl)-1H-[1]benzopyrano[3,4-f]quinoline]
11 | 3.8 nM | 266 nM | COc1c(O)ccc2c1-c1ccc3c(c1C(c1cccc(C(F)(F)F)c1)O2)C(C)=CC(C)(C)N3 (stereo not drawn) [Example 256, 2,5-Dihydro-9-hydroxy-10-methoxy-2,2,4-trimethyl-5-(3-trifluoromethylphenyl)-1H-[1]benzopyrano[3,4-f]quinoline]
12 | 10 nM | 1620 nM | COc1c(O)ccc2c1-c1ccc3c(c1C(c1cc(C(F)(F)F)cc(C(F)(F)F)c1)O2)C(C)=CC(C)(C)N3 (stereo not drawn) [Example 257, 2,5-Dihydro-9-hydroxy-10-methoxy-2,2,4-trimethyl-5-(3-5-bistrifluoromethylphenyl)-1H-[1]benzopyrano[3,4-f]quinoline]
13 | 10.7 nM | 879 nM | COc1c(O)ccc2c1-c1ccc3c(c1C(c1ccc(Cl)c(C(F)(F)F)c1)O2)C(C)=CC(C)(C)N3 (stereo not drawn) [Example 258, 2,5-Dihydro-9-hydroxy-10-methoxy-2,2,4-trimethyl-5-(3-trifluoromethyl-4-chlorophenyl)-1H-[1]benzopyrano[3,4-f]quinoline]
14 | 1.2 nM | 938 nM | COc1c(O)ccc2c1-c1ccc3c(c1C(CC(C)C)O2)C(C)=CC(C)(C)N3 (stereo not drawn) [Example 259, 2,5-Dihydro-9-hydroxy-10-methoxy-2,2,4-trimethyl-5-(2-methylpropyl)-1H-[1]benzopyrano[3,4-f]quinoline]
15 | 0.75 nM | 161 nM | C=CCCC1Oc2ccc(O)c(OC)c2-c2ccc3c(c21)C(C)=CC(C)(C)N3 (stereo not drawn) [Example 261, 2,5-Dihydro-9-hydroxy-10-methoxy-2,2,4-trimethyl-5-(3-butenyl)-1H-[1]benzopyrano[3,4-f]quinoline]
16 | 1.1 nM | 150 nM | COc1c(O)ccc2c1-c1ccc3c(c1C(Cc1ccccc1)O2)C(C)=CC(C)(C)N3 (stereo not drawn) [Example 262, 2,5-Dihydro-9-hydroxy-10-methoxy-5-(phenylmethyl)-2,2,4-trimethyl-1H-[1]benzopyrano[3,4-f]quinoline]
17 | 0.51 nM | 307 nM | COc1c(O)ccc2c1-c1ccc3c(c1[C@H](C1CCCC1)O2)C(C)=CC(C)(C)N3 [Example 264, (−)(S)5-Cyclopentyl-2,5-dihydro-9-hydroxy-10-methoxy-2,2,4-trimethyl-1H-[1]benzopyrano[3,4-f]quinoline]
18 | 0.71 nM | 102 nM | C#CCC1Oc2ccc(O)c(OC)c2-c2ccc3c(c21)C(C)=CC(C)(C)N3 (stereo not drawn) [Example 266, 2,5-Dihydro-9-hydroxy-10-methoxy-5-(3-propynyl)-2,2,4-trimethyl-1H-[1]benzopyrano[3,4-f]quinoline]
19 | 0.79 nM | 938 nM | COc1c(O)ccc2c1-c1ccc3c(c1C(C(C)C)O2)C(C)=CC(C)(C)N3 (stereo not drawn) [Example 267, 2,5-Dihydro-9-hydroxy-10-methoxy-2,2,4-trimethyl-5-(2-propyl)-1H-[1]benzopyrano[3,4-f]quinoline]
20 | 0.84 nM | 486 nM | COc1ccc(C2Oc3ccc(O)c(OC)c3-c3ccc4c(c32)C(C)=CC(C)(C)N4)s1 (stereo not drawn) [Example 268, 2,5-Dihydro-9-hydroxy-10-methoxy-2,2,4-trimethyl-5-(5-methoxy-2-thienyl)-1H-[1]benzopyrano[3,4-f]quinoline]
21 | 0.39 nM | 66.4 nM | COc1c(O)ccc2c1-c1ccc3c(c1[C@H]([C@@H]1C=CCCC1)O2)C(C)=CC(C)(C)N3 [Example 272, (−)(5S,3′S)2,5-Dihydro-9-hydroxy-10-methoxy-2,2,4-trimethyl-5-(3-cyclohexenyl)-1H-[1]benzopyrano[3,4-f]quinoline]
22 | 0.56 nM | 35.8 nM | COc1c(O)ccc2c1-c1ccc3c(c1[C@H]([C@H]1C=CCCC1)O2)C(C)=CC(C)(C)N3 [Example 273]
23 | 11.3 nM | 272 nM | CCC1=C[C@@H]([C@H]2Oc3ccc(O)c(OC)c3-c3ccc4c(c32)C(C)=CC(C)(C)N4)CCC1 [Example 277]
24 | 1.1 nM | 533 nM | COc1c(O)ccc2c1-c1ccc3c(c1C(C1CCCCC1)O2)C(C)=CC(C)(C)N3 (stereo not drawn) [Example 278, 2,5-Dihydro-9-hydroxy-10-methoxy-2,2,4-trimethyl-5-cyclohexyl-1H-[1]benzopyrano[3,4-f]quinoline]
